Drawing on US9695132B2, “Heteroaryl compounds and uses thereof” (Celgene CAR LLC, priority 2013, dated 2017), this text covers IC50 for 55 molecules.

The first assay deals with FGFR4-WT (Homo sapiens (Human), UniProt P22455). Nature of the assay: Omnia assay for potency assessment against FGFR4 enzyme. It counts as biochemical.
FGFR4-WT, sequence (P22455 22-802): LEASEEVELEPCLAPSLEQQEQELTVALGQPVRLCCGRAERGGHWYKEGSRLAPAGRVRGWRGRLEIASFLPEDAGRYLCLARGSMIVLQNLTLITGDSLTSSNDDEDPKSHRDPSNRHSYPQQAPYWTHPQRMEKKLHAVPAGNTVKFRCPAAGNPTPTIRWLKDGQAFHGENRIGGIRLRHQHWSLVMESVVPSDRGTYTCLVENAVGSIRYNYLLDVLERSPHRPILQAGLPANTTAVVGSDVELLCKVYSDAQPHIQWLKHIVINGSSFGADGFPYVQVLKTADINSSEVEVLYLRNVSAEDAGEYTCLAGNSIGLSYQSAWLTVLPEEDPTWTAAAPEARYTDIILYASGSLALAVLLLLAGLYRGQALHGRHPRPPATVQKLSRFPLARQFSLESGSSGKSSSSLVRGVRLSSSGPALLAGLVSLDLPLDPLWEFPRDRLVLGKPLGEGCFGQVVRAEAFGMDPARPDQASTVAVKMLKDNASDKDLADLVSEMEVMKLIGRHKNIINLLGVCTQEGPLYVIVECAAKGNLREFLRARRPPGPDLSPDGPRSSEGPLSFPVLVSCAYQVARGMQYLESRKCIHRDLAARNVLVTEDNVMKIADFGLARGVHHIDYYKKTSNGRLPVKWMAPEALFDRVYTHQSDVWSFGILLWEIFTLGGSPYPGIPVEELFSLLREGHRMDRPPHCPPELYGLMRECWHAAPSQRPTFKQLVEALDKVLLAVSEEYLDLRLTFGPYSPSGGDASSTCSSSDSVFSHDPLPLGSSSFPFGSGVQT
Conditions: not given
How it is done: A 10× stock solution of FGFR4-WT (PR4380C), (from Invitrogen, Carlsbad, Calif.) corresponding to method a in Table 7, was prepared as described below. Alternatively, a 10× stock solution of FGFR4-WT (F01-11G), (SignalChem, Richmond, BC) corresponding to method b in Table 7, was prepared as described below. A solution of 1.4×ATP (AS001A) and 5× Tyr-Sox conjugated peptide substrate (KNZ3101) were prepared in 1× kinase reaction buffer consisting of 20 mM Tris, pH 7.5, 5 mM MgCl2, 1 mM EGTA, 5 mM β-glycerophosphate, 5% glycerol (10× stock, KB002A) and 0.2 mM DTT (DS001A). […] The serially diluted compounds were prepared on a Tecan EVO100. A second addition of 10 μl of Tyr-Sox FGFR4 substrate was added to each well and the kinase reactions were started with the addition of 35 μL of 1.4×ATP. The reactions were monitored every 71 seconds for 240 minutes at λex360/λem485 in a Synergy plate reader from BioTek (Winooski, Vt.).
As to `C=CC(=O)N[C@H]1CCCC[C@H]1Nc1ncc2c(n1)N(Cc1ccccc1)C(=O)N(c1c(Cl)c(OC)cc(OC)c1Cl)C2` [Compound I-82], the IC50 was less than 100 nM.

The same assay, now with this note: method a: [FGFR4-WT]=10 nM (Invitrogen), [ATP]=300 uM, [Y10-Sox]=10 uM.
Regarding `C=CC(=O)Nc1cc(C(=O)NC2CCN(C)CC2)ccc1Nc1ncc2c(n1)N(C)C(=O)N(c1c(Cl)c(OC)cc(OC)c1Cl)C2` [Compound I-150], the IC50 is less than 100 nM.

In the case of `C=CC(=O)Nc1ccccc1Nc1ncc2c(n1)N(CC1CCNCC1)C(=O)N(c1cc(OC)cc(OC)c1)C2` [Compound I-40], the IC50 was less than 100 nM.

`C=CC(=O)Nc1ccccc1Nc1ncc2c(n1)N(CC1CCN(C(=O)OC(C)(C)C)CC1)C(=O)N(c1cc(OC)cc(OC)c1)C2` [Compound I-60]: the IC50 is less than 100 nM.

Regarding `C=CC(=O)Nc1ccccc1Nc1ncc2c(n1)N(C)C(=O)N(C1CCCCC1)C2` [Compound I-52], the IC50 lay within 501 to 999 nM.

As for `C=CC(=O)N[C@@H]1CCCC[C@@H]1Nc1ncc2c(n1)N(Cc1ccccc1)C(=O)N(c1c(Cl)c(OC)cc(OC)c1Cl)C2` [Compound I-66], the IC50 was greater than 1000 nM.

Take `C=CC(=O)Nc1ccc(N2CCN(CC)CC2)cc1Nc1ncc2c(n1)N(C)C(=O)N(c1cc(OC)cc(OC)c1)C2` [Compound I-30]: the IC50 was less than 100 nM.

`C=CC(=O)Nc1ccccc1Nc1ncc2c(n1)N(CC)C(=O)N(CC)C2` [Compound I-120]: the IC50 is greater than 1000 nM.

For `C=CC(=O)N(C)c1ccccc1Nc1ncc2c(n1)N(C)C(=O)N(c1c(Cl)c(OC)cc(OC)c1Cl)C2` [Compound I-29], the 50% inhibitory concentration (IC50) was in the range of 101 to 500 nM.

Consider `C=CCN1C(=O)N(c2cc(OC)cc(OC)c2)Cc2cnc(Nc3ccccc3NC(=O)C=C)nc21` [Compound I-32], for which the IC50 was less than 100 nM.

Turning to `C=CC(=O)Nc1cc(N2CCN(C(=O)CCC(=O)O)CC2)ccc1Nc1ncc2c(n1)N(C)C(=O)N(c1c(Cl)c(OC)cc(OC)c1Cl)C2` [Compound I-123], the IC50 is less than 100 nM.

For `C=CC(=O)Nc1cc(C2=CCN(CC)CC2)ccc1Nc1ncc2c(n1)N(C)C(=O)N(c1cc(OC)cc(OC)c1)C2` [Compound I-56], the IC50 was less than 100 nM.

Consider `C=CC(=O)Nc1ccccc1Nc1ncc2c(n1)N(Cc1cccc(C#N)c1)C(=O)N(c1cc(OC)cc(OC)c1)C2` [Compound I-90], for which the half-inhibitory concentration (IC50) was less than 100 nM.

On to `C=CC(=O)Nc1ccccc1Nc1ncc2c(n1)N(Cc1csc(C)n1)C(=O)N(c1c(Cl)c(OC)cc(OC)c1Cl)C2` [Compound I-134], for which the IC50 was less than 100 nM.

`C=CC(=O)NC1CCCCC1Nc1ncc2c(n1)NC(=O)N(c1c(Cl)c(OC)cc(OC)c1Cl)C2` (racemic) [Compound I-73]: the half-maximal inhibitory concentration (IC50) was in the range of 101 to 500 nM.

In the case of `C=CC(=O)Nc1ccccc1Nc1ncc2c(n1)N(CCC(O)CO)C(=O)N(c1cc(OC)cc(OC)c1)C2` (stereo not shown) [Compound I-58], the IC50 was less than 100 nM.

Consider `C=CC(=O)Nc1ccccc1Nc1ncc2c(n1)N(Cc1ccc(F)c(N)c1)C(=O)N(c1c(Cl)c(OC)cc(OC)c1Cl)C2` [Compound I-144], for which the IC50 was less than 100 nM.

Regarding `C=CC(=O)Nc1cc(C2CCN(CC)CC2)ccc1Nc1ncc2c(n1)N(C)C(=O)N(c1cc(OC)cc(OC)c1)C2` [Compound I-54], the IC50 was less than 100 nM.

With `COc1cc(OC)cc(N2Cc3cnc(Nc4ccccc4)nc3N(C)C2=O)c1` [Compound I-237], the IC50 lay in the range of 101 to 500 nM.

In the case of `C=CCCN1C(=O)N(c2cc(OC)cc(OC)c2)Cc2cnc(Nc3ccccc3NC(=O)C=C)nc21` [Compound I-57], the half-inhibitory concentration (IC50) was less than 100 nM.

As to `C=CC(=O)Nc1ccccc1Nc1ncc2c(n1)N(Cc1ccn(C)n1)C(=O)N(c1c(Cl)c(OC)cc(OC)c1Cl)C2` [Compound I-136], the concentration for half-maximal inhibition (IC50) was less than 100 nM.

In the case of `C=CC(=O)Nc1ccccc1Nc1ncc2c(n1)N(CC(=O)OC(C)(C)C)C(=O)N(c1cc(OC)cc(OC)c1)C2` [Compound I-96], the IC50 is greater than 1000 nM.

As to `C=CC(=O)N[C@H]1CCCC[C@H]1Nc1ncc2c(n1)N(Cc1cn[nH]c1)C(=O)N(c1c(Cl)c(OC)cc(OC)c1Cl)C2` [Compound I-152], the concentration for half-maximal inhibition (IC50) is less than 100 nM.

With `C=CC(=O)Nc1cc(-c2nccs2)ccc1Nc1ncc2c(n1)N(C)C(=O)N(c1cc(OC)cc(OC)c1)C2` [Compound I-84], the half-maximal inhibitory concentration (IC50) is 501 to 999 nM.

Consider `C=CC(=O)N[C@H]1CCCC[C@H]1Nc1ncc2c(n1)N(C)C(=O)N(c1ccc(OC)cc1)C2` [Compound I-222], for which the IC50 is greater than 1000 nM.

With `C=CC(=O)Nc1ccc(-c2cnn(C)c2)cc1Nc1ncc2c(n1)N(C)C(=O)N(c1c(Cl)c(OC)cc(OC)c1Cl)C2` [Compound I-74], the half-inhibitory concentration (IC50) was less than 100 nM.

Regarding `C=CC(=O)Nc1cc(-c2cnn(C)c2)ccc1Nc1ncc2c(n1)N(C)C(=O)N(c1c(Cl)c(OC)cc(OC)c1Cl)C2` [Compound I-141], the IC50 is less than 100 nM.

As to `C=CC(=O)Nc1ccccc1Oc1ncc2c(n1)N(C)C(=O)N(c1c(Cl)c(OC)cc(OC)c1Cl)C2` [Compound I-65], the IC50 was less than 100 nM.

As to `C=CC(=O)Nc1ccccc1Nc1ncc2c(n1)N(C)C(=O)N(c1ccccc1)C2` [Compound I-38], the concentration for half-maximal inhibition (IC50) lay in the range of 501 to 999 nM.

Turning to `C=CC(=O)Nc1cc(CN2CCN(CC)CC2)ccc1Nc1ncc2c(n1)N(C)C(=O)N(c1cc(OC)cc(OC)c1)C2` [Compound I-122], the IC50 was 101 to 500 nM.

Regarding `C=CC(=O)NC1CCCCC1Nc1ncc2c(n1)N(CC1CC1)C(=O)N(c1cc(OC)cc(OC)c1Cl)C2` (stereo not shown) [Compound I-101], the IC50 was 101 to 500 nM.

For the molecule `C=CC(=O)NC1CNC(=O)CC1Nc1ncc2c(n1)N(C)C(=O)N(c1c(Cl)c(OC)cc(OC)c1Cl)C2` (stereo not shown) [Compound I-196], the IC50 is less than 100 nM.

Turning to `C=CC(=O)N[C@H]1CCCC[C@H]1Nc1ncc2c(n1)N(Cc1ccn(C)n1)C(=O)N(c1c(Cl)c(OC)cc(OC)c1Cl)C2` [Compound I-147], the IC50 was less than 100 nM.

Take `C=CC(=O)Nc1ccccc1Nc1ncc2c(n1)N(CC1CC1)C(=O)N(c1c(Cl)c(OC)cc(OC)c1Cl)C2` [Compound I-130]: the concentration for half-maximal inhibition (IC50) is less than 100 nM.

As to `C=CC(=O)Nc1cc(-c2cnn(C)c2)ccc1Nc1ncc2c(n1)N(C)C(=O)N(c1cc(OC)cc(OC)c1)C2` [Compound I-77], the half-inhibitory concentration (IC50) was less than 100 nM.

Consider `C=CC(=O)Nc1ccccc1Nc1ncc2c(n1)N(Cc1ccnc(N)c1)C(=O)N(c1c(Cl)c(OC)cc(OC)c1Cl)C2` [Compound I-135], for which the IC50 was less than 100 nM.

Take `C=CC(=O)Nc1cc(-c2nnn(C)n2)ccc1Nc1ncc2c(n1)N(C)C(=O)N(c1c(Cl)c(OC)cc(OC)c1Cl)C2` [Compound I-145]: the IC50 is less than 100 nM.

`C=CC(=O)N(C)c1ccccc1Nc1ncc2c(n1)N(Cc1ccccc1)C(=O)N(c1c(Cl)c(OC)cc(OC)c1Cl)C2` [Compound I-37]: the half-maximal inhibitory concentration (IC50) is 101 to 500 nM.

As to `C=CS(=O)(=O)Nc1ccccc1Nc1ncc2c(n1)N(C)C(=O)N(c1cc(OC)cc(OC)c1)C2` [Compound I-67], the half-maximal inhibitory concentration (IC50) is less than 100 nM.

In the case of `C=CC(=O)Nc1ccccc1Nc1ncc2c(n1)N(CC1CC1)C(=O)N(c1cc(OC)cc(OC)c1F)C2` [Compound I-109], the IC50 is less than 100 nM.

As for `C=CC(=O)Nc1ccc(-c2cnn(C)c2)cc1Nc1ncc2c(n1)N(C)C(=O)N(c1cc(OC)cc(OC)c1)C2` [Compound I-27], the IC50 is less than 100 nM.

On to `C=CC(=O)Nc1ccccc1Nc1ncc2c(n1)N(Cc1nccs1)C(=O)N(c1c(Cl)c(OC)cc(OC)c1Cl)C2` [Compound I-91], for which the IC50 was less than 100 nM.

Take `C=CC(=O)NC1CN(c2ccccn2)CC1Nc1ncc2c(n1)N(C)C(=O)N(c1c(Cl)c(OC)cc(OC)c1Cl)C2` (stereo not shown) [Compound I-202]: the concentration for half-maximal inhibition (IC50) was less than 100 nM.

Consider `C=CC(=O)Nc1ccccc1Nc1ncc2c(n1)N(C)C(=O)N(c1cc(OC)cc(OC)c1F)C2` [Compound I-108], for which the IC50 is less than 100 nM.

Take `C=CC(=O)Nc1ccccc1Nc1ncc2c(n1)N(CC(F)F)C(=O)N(c1c(Cl)c(OC)cc(OC)c1Cl)C2` [Compound I-103]: the IC50 is less than 100 nM.

With `C=CC(=O)Nc1ccc(-c2nccs2)cc1Nc1ncc2c(n1)N(C)C(=O)N(c1cc(OC)cc(OC)c1)C2` [Compound I-78], the 50% inhibitory concentration (IC50) is less than 100 nM.

For `C=CC(=O)Nc1ccccc1Nc1ncc2c(n1)N(C1CC1)C(=O)N(c1cc(OC)cc(OC)c1)C2` [Compound I-34], the IC50 was less than 100 nM.

Staying with this assay, now noted: method b: [FGFR4-WT]=2.5 nM (SignalChem), [ATP]=250 uM, [Y10-Sox]=10 uM.
As to `C=CC(=O)Nc1cc(N2CCN(CC)CC2)ccc1Nc1ncc2c(n1)N(C)C(=O)N(c1cc(OC)cc(OC)c1)C2` [Compound I-15], the IC50 was less than 100 nM.

With `C=CC(=O)Nc1cc(C(F)(F)F)ccc1Nc1ncc2c(n1)N(Cc1ccccc1)C(=O)N(c1c(Cl)c(OC)cc(OC)c1Cl)C2` [Compound I-10], the 50% inhibitory concentration (IC50) was greater than 1000 nM.

Take `C=CC(=O)Nc1ccccc1Nc1ncc2c(n1)N(C1CC1)C(=O)N(c1c(Cl)c(OC)cc(OC)c1Cl)C2` [Compound I-23]: the IC50 is less than 100 nM.

For the molecule `C=CC(=O)NCc1ccccc1Nc1ncc2c(n1)N(C)C(=O)N(c1c(Cl)c(OC)cc(OC)c1Cl)C2` [Compound I-181], the IC50 is less than 100 nM.

Turning to `C=CC(=O)Nc1cc(OCCOC)ccc1Nc1ncc2c(n1)N(Cc1ccccc1)C(=O)N(c1cc(OC)cc(OC)c1)C2` [Compound I-14], the 50% inhibitory concentration (IC50) was less than 100 nM.

As to `C=CC(=O)Nc1ccccc1Nc1ncc2c(n1)N(Cc1ccc(Cl)c(OC)c1)C(=O)N(c1c(Cl)c(OC)cc(OC)c1Cl)C2` [Compound I-24], the 50% inhibitory concentration (IC50) is less than 100 nM.

For `CCC(=O)Nc1ccccc1Nc1ncc2c(n1)N(C)C(=O)N(c1c(Cl)c(OC)cc(OC)c1Cl)C2` [Compound I-235], the concentration for half-maximal inhibition (IC50) is 101 to 500 nM.

`C=CC(=O)Nc1cc(Cl)c(Cl)cc1Nc1ncc2c(n1)N(Cc1ccccc1)C(=O)N(c1c(Cl)c(OC)cc(OC)c1Cl)C2` [Compound I-11]: the IC50 was in the range of 501 to 999 nM.

By IC50 is commonly meant the concentration that inhibits the measured activity by half.
